Test results: the Kinase Knowledgebase extract (Sharma et al. 2016)

Legend:
MAPK14 (human) = MAPK14 (human) (UniProt Q16539); assay: Inhibition of MAPK14 Kinase Activity
MAPK14 (mouse) = assay: Assessment of MAPK14 Kinase Activity in RAW 264.7 Cells

Sequence of MAPK14 (human) (Q16539 whole entry, looked up): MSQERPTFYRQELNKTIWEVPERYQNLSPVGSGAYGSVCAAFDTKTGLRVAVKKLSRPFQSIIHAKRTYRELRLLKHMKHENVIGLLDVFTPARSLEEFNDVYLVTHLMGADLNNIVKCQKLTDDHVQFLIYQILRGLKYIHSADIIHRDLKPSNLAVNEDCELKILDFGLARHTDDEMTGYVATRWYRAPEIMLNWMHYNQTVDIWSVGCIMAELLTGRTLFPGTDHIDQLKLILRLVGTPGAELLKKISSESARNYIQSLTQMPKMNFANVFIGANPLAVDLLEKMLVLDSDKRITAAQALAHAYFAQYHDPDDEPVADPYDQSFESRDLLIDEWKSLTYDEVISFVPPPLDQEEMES

IC50 (MAPK14 (human)) | IC50 (MAPK14 (mouse)) | Compound
7 nM | 34.3 nM | CC(C)(C)Cn1c(N)nc2ccc(-c3[nH]c(C(C)(C)C)nc3-c3ccc(F)cc3)nc21
– | 41.8 nM | CC(C)Cn1c(N)nc2ccc(-c3[nH]c(C(C)(C)C)nc3-c3ccc(F)cc3F)nc21
7.2 nM | – | CC(C)(C)Cn1c(N)nc2ccc(-c3[nH]c(-c4c(F)cccc4F)nc3-c3ccc(F)cc3)nc21
– | 31.2 nM | CC(C)Cn1c(N)nc2ccc(-c3[nH]c(-c4c(Cl)cccc4Cl)nc3-c3ccc(F)cc3F)nc21
3.7 nM | 64.7 nM | CC(C)Cn1c(N)nc2ccc(-c3[nH]c(-c4c(Cl)cccc4Cl)nc3-c3ccccc3)nc21
– | 20.7 nM | CC(C)(C)Cn1c(N)nc2ccc(-c3[nH]c(C(C)(C)C)nc3-c3ccc(F)cc3F)nc21
5.1 nM | 66.4 nM | CC(C)Cn1c(N)nc2ccc(-c3[nH]c(C(C)(C)C)nc3-c3ccccc3)nc21
– | 39 nM | CC(C)(C)Cn1c(N)nc2ccc(-c3[nH]c(-c4c(F)cccc4Cl)nc3-c3ccccc3)nc21
3.6 nM | 23 nM | CC(C)(C)Cn1c(N)nc2ccc(-c3[nH]c(-c4c(Cl)cccc4Cl)nc3-c3ccc(F)cc3)nc21
